Converted amounts (≈) assume the structure as drawn. Non-standard residues stand in square brackets, D forms with d. Residues, ends and D or L forms follow the SMILES beside them. *: point of attachment. X1 = NC(=O)[C@H](Cc1c[nH]cn1)NC(=O)CNC(=O)[C@@H](N)CN*; Gly(N(CH2)2(3-indolyl)) = O=C(O)CNCCc1c[nH]c2ccccc12; Nspe = C[C@H](NCC(=O)O)c1ccccc1; Nphe = O=C(O)CNCc1ccccc1; Nlys = NCCCCNCC(=O)O
Tests used:
[1] = Hemolytic activity in male Sprague-Dawley rat erythrocytes at 50 uM incubated for 1 hr by absorbance based method relative to control; format: toxicity, cell-based, Erythrocyte; conditions: read-out: Activity
[2] = Hemolytic activity in male Sprague-Dawley rat erythrocytes assessed as concentration required for 50% hemolysis incubated for 1 hr by absorbance based method; format: toxicity, cell-based, Erythrocyte
[3] = tested on: Staphylococcus aureus; test: Antibacterial activity against Staphylococcus aureus ATCC 25923 assessed as inhibition of bacterial growth incubated for 24 hrs by broth dilution method; format: functional
[4] = Hemolytic activity in male Sprague-Dawley rat erythrocytes at 25 uM incubated for 1 hr by absorbance based method relative to control; format: toxicity, cell-based, Erythrocyte; conditions: read-out: Activity
[5] = tested on: Escherichia coli; test: Antibacterial activity against Escherichia coli ATCC 25922 assessed as inhibition of bacterial growth incubated for 24 hrs by broth dilution method; format: functional
[6] = Selectivity index, ratio of HC10 for hemolytic activity in male Sprague-Dawley rat erythrocytes to MIC for antibacterial activity against Escherichia coli ATCC 25922; format: toxicity; conditions: read-out: Selectivity Index
[7] = Hemolytic activity in male Sprague-Dawley rat erythrocytes at 100 uM incubated for 1 hr by absorbance based method relative to control; format: toxicity, cell-based, Erythrocyte; conditions: read-out: Activity
[8] = tested on: Erythrocyte; test: Hemolytic activity in male Sprague-Dawley rat erythrocytes assessed as concentration required for 10% hemolysis incubated for 1 hr by absorbance based method; format: toxicity, cell-based

SMILES | hemolysis at 1 h, 50 µM [1] | HC50 at 1 h [2] | MIC [3] | hemolysis at 1 h, 25 µM [4] | MIC [5] | selectivity ratio [6] | hemolysis at 1 h, 100 µM [7] | HC10 [8]
C[C@@H](c1ccccc1)N(CC(N)=O)C(=O)CN(CCCCN)C(=O)CN(CCCCN)C(=O)CN(C(=O)CN(C(=O)CN(CCCCN)C(=O)CN(C(=O)CN(C(=O)CN(CCCCN)C(=O)CN(CCc1c[nH]c2ccccc12)C(=O)CN(CCc1c[nH]c2ccccc12)C(=O)CNCCCCN)[C@@H](C)c1ccccc1)[C@@H](C)c1ccccc1)[C@@H](C)c1ccccc1)[C@@H](C)c1ccccc1 | 8.77% | > 100 µM | 3.1 µM (≈ 5.78 µg/mL) | 4.95% | 6.3 µM (≈ 11.7 µg/mL) | 13.5 | 11.1% | 75.3 µM
C[C@@H](c1ccccc1)N(CC(N)=O)C(=O)CN(C(=O)CN(CCCCN)C(=O)CN(C(=O)CN(C(=O)CN(CCCCN)C(=O)CN(C(=O)CN(C(=O)CN(CCCCN)C(=O)CN(CCc1c[nH]c2ccccc12)C(=O)CN(CCc1c[nH]c2ccccc12)C(=O)CNCCCCN)[C@@H](C)c1ccccc1)[C@@H](C)c1ccccc1)[C@@H](C)c1ccccc1)[C@@H](C)c1ccccc1)[C@@H](C)c1ccccc1 | 55.3% | 63.6 µM | < 0.8 µM | 33% | 3.1 µM (≈ 5.88 µg/mL) | 2.5 | 73.9% | 7.9 µM
C[C@@H](c1ccccc1)N(CC(N)=O)C(=O)CN(CCCCN)C(=O)CN(Cc1ccccc1)C(=O)CN(Cc1ccccc1)C(=O)CN(CCCCN)C(=O)CN(C(=O)CN(C(=O)CN(CCCCN)C(=O)CN(Cc1ccccc1)C(=O)CN(Cc1ccccc1)C(=O)CN(CCCCN)C(=O)CNC(=O)[C@H](Cc1c[nH]cn1)NC(=O)CNC(=O)CN)[C@@H](C)c1ccccc1)[C@@H](C)c1ccccc1 (H-GGHG[Nlys][Nphe][Nphe][Nlys][Nspe][Nspe][Nlys][Nphe][Nphe][Nlys][Nspe]-NH2) | 6.84% | > 100 µM | 25 µM (≈ 47.8 µg/mL) | 0.91% | 25 µM (≈ 47.8 µg/mL) | 2.3 | 20.8% | 58.4 µM
C[C@@H](c1ccccc1)N(CC(=O)N(CC(=O)N(CCCCN)CC(=O)N(CC(=O)N(CC(=O)N(CCCCN)CC(=O)N(CC(=O)N(CC(=O)N(CCCCN)CC(=O)N(CC(=O)N(CC(N)=O)Cc1ccccc1)Cc1ccccc1)Cc1ccccc1)Cc1ccccc1)Cc1ccccc1)Cc1ccccc1)Cc1ccccc1)C(=O)CN(CCCCN)C(=O)CNC(=O)[C@H](Cc1c[nH]cn1)NC(=O)CNC(=O)CN (H-GGHG[Nlys][Nspe][Nphe][Nlys][Nphe][Nphe][Nlys][Nphe][Nphe][Nlys][Nphe][Nphe]-NH2) | 0.18% | > 100 µM | > 25 µM | -0.43% | 25 µM (≈ 50.7 µg/mL) |  | 1.36% | > 100 µM
C[C@@H](c1ccccc1)N(CC(N)=O)C(=O)CN(CCCCN)C(=O)CN(C(=O)CN(C(=O)CN(CCCCN)C(=O)CN(C(=O)CN(C(=O)CN(CCCCN)C(=O)CN(C(=O)CN(C(=O)CN(CCCCN)C(=O)CNC(=O)[C@H](Cc1c[nH]cn1)NC(=O)CNC(=O)CN)[C@@H](C)c1ccccc1)[C@@H](C)c1ccccc1)[C@@H](C)c1ccccc1)[C@@H](C)c1ccccc1)[C@@H](C)c1ccccc1)[C@@H](C)c1ccccc1 (H-GGHG[Nlys][Nspe][Nspe][Nlys][Nspe][Nspe][Nlys][Nspe][Nspe][Nlys][Nspe]-NH2) | 22.4% | 100 µM | 6.3 µM (≈ 12.4 µg/mL) | 6.5% | 12.5 µM (≈ 24.6 µg/mL) | 2.2 | 49.8% | 27.7 µM
C[C@@H](c1ccccc1)N(CC(N)=O)C(=O)CN(C(=O)CN(CCCCN)C(=O)CN(Cc1ccccc1)C(=O)CN(Cc1ccccc1)C(=O)CN(CCCCN)C(=O)CN(Cc1ccccc1)C(=O)CN(Cc1ccccc1)C(=O)CN(CCCCN)C(=O)CN(CCc1c[nH]c2ccccc12)C(=O)CN(CCc1c[nH]c2ccccc12)C(=O)CN(CCCCN)C(=O)[C@H](Cc1c[nH]cn1)NC(=O)CNC(=O)CN)[C@@H](C)c1ccccc1 (H-GGH[Nlys][Gly(N(CH2)2(3-indolyl))][Gly(N(CH2)2(3-indolyl))][Nlys][Nphe][Nphe][Nlys][Nphe][Nphe][Nlys][Nspe][Nspe]-NH2) | 25.5% | > 100 µM | 1.6 µM (≈ 3.35 µg/mL) | 13.8% | 12.5 µM (≈ 26.2 µg/mL) | 1.3 | 40.2% | 16.3 µM
C[C@@H](c1ccccc1)N(CC(N)=O)C(=O)CN(CCCCN)C(=O)CN(CCCCN)C(=O)CN(C(=O)CN(C(=O)CN(CCCCN)C(=O)CN(C(=O)CN(C(=O)CN(CCCCN)C(=O)CN(CCc1c[nH]c2ccccc12)C(=O)CN(CCc1c[nH]c2ccccc12)C(=O)CN(CCCCN)C(=O)[C@H](Cc1c[nH]cn1)NC(=O)CNC(=O)CN)[C@@H](C)c1ccccc1)[C@@H](C)c1ccccc1)[C@@H](C)c1ccccc1)[C@@H](C)c1ccccc1 (H-GGH[Nlys][Gly(N(CH2)2(3-indolyl))][Gly(N(CH2)2(3-indolyl))][Nlys][Nspe][Nspe][Nlys][Nspe][Nspe][Nlys][Nlys][Nspe]-NH2) | 5.9% | > 100 µM | 6.3 µM (≈ 13.3 µg/mL) | 4.98% | 25 µM (≈ 52.9 µg/mL) | > 4 | 6.4% | > 100 µM
C[C@@H](c1ccccc1)N(CC(=O)N(CCCCN)CC(=O)N(CC(=O)N(CC(=O)N(CCCCN)CC(=O)N(CC(=O)N(CC(N)=O)Cc1ccccc1)Cc1ccccc1)[C@@H](C)c1ccccc1)[C@@H](C)c1ccccc1)C(=O)CN(C(=O)CN(CCCCN)C(=O)CN(Cc1ccccc1)C(=O)CN(Cc1ccccc1)C(=O)CN(CCCCN)C(=O)[C@H](Cc1c[nH]cn1)NC(=O)CNC(=O)CN)[C@@H](C)c1ccccc1 (H-GGH[Nlys][Nphe][Nphe][Nlys][Nspe][Nspe][Nlys][Nspe][Nspe][Nlys][Nphe][Nphe]-NH2) | 8.68% | > 100 µM | 25 µM (≈ 50.4 µg/mL) | 3.01% | 12.5 µM (≈ 25.2 µg/mL) | 4.5 | 18.4% | 56.5 µM
C[C@@H](c1ccccc1)N(CC(=O)N(CCCCN)CC(=O)N(CC(=O)N(CC(=O)N(CCCCN)CC(=O)N(CC(=O)N(CC(=O)N(CCCCN)CC(=O)N(CC(=O)N(CC(N)=O)Cc1ccccc1)Cc1ccccc1)Cc1ccccc1)Cc1ccccc1)Cc1ccccc1)Cc1ccccc1)C(=O)CN(Cc1ccccc1)C(=O)CN(CCCCN)C(=O)[C@H](Cc1c[nH]cn1)NC(=O)CNC(=O)CN (H-GGH[Nlys][Nphe][Nspe][Nlys][Nphe][Nphe][Nlys][Nphe][Nphe][Nlys][Nphe][Nphe]-NH2) | -0.22% | > 100 µM | > 25 µM | -0.71% | 25 µM (≈ 49.3 µg/mL) |  | 0.92% | > 100 µM
C[C@@H](c1ccccc1)N(CC(=O)NC[C@H](N)C(=O)NCC(=O)N[C@@H](Cc1c[nH]cn1)C(N)=O)C(=O)CN(CCCCN)C(=O)CN(CCCCN)C(=O)CN(C(=O)CN(C(=O)CN(CCCCN)C(=O)CN(C(=O)CN(C(=O)CN(CCCCN)C(=O)CN(CCc1c[nH]c2ccccc12)C(=O)CN(CCc1c[nH]c2ccccc12)C(=O)CNCCCCN)[C@@H](C)c1ccccc1)[C@@H](C)c1ccccc1)[C@@H](C)c1ccccc1)[C@@H](C)c1ccccc1 (H-[Nlys][Gly(N(CH2)2(3-indolyl))][Gly(N(CH2)2(3-indolyl))][Nlys][Nspe][Nspe][Nlys][Nspe][Nspe][Nlys][Nlys][Nspe]-X1) | 6.1% | > 100 µM | 6.3 µM (≈ 13.5 µg/mL) | 4.93% | > 25 µM |  | 5.26% | > 100 µM
C[C@@H](c1ccccc1)N(CC(=O)N(CCCCN)CC(=O)N(CC(=O)N(CC(=O)N(CCCCN)CC(=O)N(CC(=O)N(CC(=O)NC[C@H](N)C(=O)NCC(=O)N[C@@H](Cc1c[nH]cn1)C(N)=O)Cc1ccccc1)Cc1ccccc1)[C@@H](C)c1ccccc1)[C@@H](C)c1ccccc1)C(=O)CN(C(=O)CN(CCCCN)C(=O)CN(Cc1ccccc1)C(=O)CN(Cc1ccccc1)C(=O)CNCCCCN)[C@@H](C)c1ccccc1 (H-[Nlys][Nphe][Nphe][Nlys][Nspe][Nspe][Nlys][Nspe][Nspe][Nlys][Nphe][Nphe]-X1) | 2.32% | > 100 µM | 25 µM (≈ 51.1 µg/mL) | 0.66% | > 25 µM |  | 7.73% | > 100 µM
C[C@@H](c1ccccc1)N(CC(=O)N(CCCCN)CC(=O)N(CCc1c[nH]c2ccccc12)CC(=O)N(CCc1c[nH]c2ccccc12)CC(=O)NC[C@H](N)C(=O)NCC(=O)N[C@@H](Cc1c[nH]cn1)C(N)=O)C(=O)CN(CCCCN)C(=O)CN(CCCCN)C(=O)CN(C(=O)CN(C(=O)CN(CCCCN)C(=O)CN(C(=O)CN(C(=O)CNCCCCN)[C@@H](C)c1ccccc1)[C@@H](C)c1ccccc1)[C@@H](C)c1ccccc1)[C@@H](C)c1ccccc1 (H-[Nlys][Nspe][Nspe][Nlys][Nspe][Nspe][Nlys][Nlys][Nspe][Nlys][Gly(N(CH2)2(3-indolyl))][Gly(N(CH2)2(3-indolyl))]-X1) | 4.23% | > 100 µM | 6.3 µM (≈ 13.5 µg/mL) | 3.83% | > 25 µM |  | 3.38% | > 100 µM

Reference: ChEMBL document CHEMBL5584354, “Impact of Conjugation of the Reactive Oxygen Species (ROS)-Generating Catalytic Moiety with Membrane-Active Antimicrobial Peptoids: Promoting Multitarget Mechanism and Enhancing Selectivity” (J Med Chem, 2024)
